# Data as given in PMC7593677, “Discovery of N-(2-Amino-4-Fluorophenyl)-4-[bis-(2-Chloroethyl)-Amino]-Benzamide as a Potent HDAC3 Inhibitor” (Frontiers in Oncology, 2020).
# Read-outs that look alike come from different tables or passages of the source.
# Tests used:
# [1] = test system: H460 cells; assay: Antiproliferative MTT assay; type: cell-based; conditions: Homo sapiens, NCI-H460, 48 h, read-out: Antiproliferative IC50
# Method: (§1) […]. The stock solutions of compounds to be tested were prepared in culture medium. Tumor cell lines were cultured in 96-well plates at a density of 5 × 10^3 cells per well and incubated until 90–95% confluence, and then each well received 100 μL medium containing desired concentrations of test compounds, and then incubated at 37°C and 5% CO2 for 48 h. To determine cell viability, 20 μL MTT working solution (5 mg/mL) was then added to each well and incubated for another 4 h. After this incubation, the medium was carefully aspirated, and 200 μL dimethyl sulfoxide (DMSO) was added to each well and vibrated for 10 min to make sure formed formazans were completely dissolved. The optical densities (ODs) at 490 and 630 nm were counted by Universal Microplate Spectrophotometer. […] Origin 7.5 software was used to calculate the IC50 values from at least three independent experiments.
# [2] = test system: A549 cells; assay: Antiproliferative MTT assay; type: cell-based; conditions: Homo sapiens, A549, 48 h, read-out: Antiproliferative IC50
# Method: as §1
# [3] = test system: SW480 cells; assay: Antiproliferative MTT assay; type: cell-based; conditions: Homo sapiens, SW480, 48 h, read-out: Antiproliferative IC50
# Method: as §1
# [4] = target: T1, HDAC3 (Homo sapiens, UniProt O15379); assay: biochemical; type: biochemical
# T1 construct: purchased BPS Bioscience
# T1 sequence (O15379 whole entry): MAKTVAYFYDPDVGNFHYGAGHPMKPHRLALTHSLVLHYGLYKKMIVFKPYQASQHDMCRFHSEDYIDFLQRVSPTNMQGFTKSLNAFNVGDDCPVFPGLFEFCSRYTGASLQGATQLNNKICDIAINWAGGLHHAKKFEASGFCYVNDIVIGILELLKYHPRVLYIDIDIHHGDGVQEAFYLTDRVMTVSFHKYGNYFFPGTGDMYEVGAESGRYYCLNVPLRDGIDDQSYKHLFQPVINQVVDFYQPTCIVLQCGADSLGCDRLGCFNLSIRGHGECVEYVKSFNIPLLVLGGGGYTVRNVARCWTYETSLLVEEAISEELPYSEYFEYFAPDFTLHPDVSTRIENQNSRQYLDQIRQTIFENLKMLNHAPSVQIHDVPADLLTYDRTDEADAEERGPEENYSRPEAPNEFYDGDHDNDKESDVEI
# T1 sequence (Q9Y618 395-489 partner limits assumed): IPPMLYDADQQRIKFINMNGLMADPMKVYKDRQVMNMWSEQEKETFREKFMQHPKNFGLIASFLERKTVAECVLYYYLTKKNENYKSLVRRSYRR
# Method: (§2) All of the HDAC enzymes tested were purchased from BPS Bioscience. First, 20 μL of each recombinant HDAC enzyme solution (HDAC1, 2, 3, 4, 6, 7, 8, and 9) was mixed with various concentrations of tested compound samples (20 μL) in a 96-well plate. The mixture was incubated at 30°C for 1 h for the dose-dependent assay. Additionally, mixtures were incubated for 15, 30, 60, and 90 min, for the time-dependent assay, and then 10 μL of fluorogenic substrate [3 mM Boc-Lys(acetyl)-AMC or Boc-Lys (trifluoroacetyl)-AMC for HDAC1/2/3/6 or HDAC4/7/8/9, respectively] was added. Then, the acetylation reaction was initiated by adding HDAC substrate working solution and incubating at 30°C for 2 h. After the desired time, 10 μL developer with trypsin and trichostatin A was added to stop the reaction, and then the mixture was incubated at 30°C for another 30 min.
# (§3) A microplate reader was used to determine fluorescence intensity at excitation: 360 nm and emission: 460 nm. The inhibition ratios were calculated by comparing the fluorescence intensities from tested wells to those of controls. The IC50 curves and values were then obtained with GraphPad Prism 6.0 software.
# [5] = test system: HepG2 cells; assay: Cell cycle analysis (PI, flow cytometry); conditions: 6 h; for Percentage of cells in G2/M phase (third peak): HepG2
# Method: (§5) Following 6-h incubation, cells were washed twice with cold PBS and then fixed in 70% precooled ethanol at 4°C for 12 h. The fixed cells were washed again and then stained with PI/RNase A for 30 min at room temperature.
# [6] = test system: HepG2 xenograft; assay: In vivo antitumor activity, HepG2 xenograft nude mice model; conditions: 100 mg/kg once a day for 15 days
# Method: When the tumor is prominent, the BALB/c female mice were randomly assigned into control and treatment groups (six mice per group).
# Injected mice were kept for 10 days; those with palpable tumors were then randomly assigned into treatment and control groups (six mice per group). The treatment groups were administrated with 100 mg/kg/d test compound intragastrically, whereas the control group was administered with an equal volume of phosphate-buffered saline (PBS) solution. The tumor size and body weight were assessed every day. After 15 days of treatment, the mice were euthanized, and tumor weights were acquired with an electronic balance.
# [7] = target: T2, HDAC6 (Homo sapiens, UniProt Q9UBN7); assay: HDAC enzyme inhibition assay (fluorogenic substrate); type: biochemical
# T2 construct: purchased BPS Bioscience
# T2 sequence (Q9UBN7 whole entry): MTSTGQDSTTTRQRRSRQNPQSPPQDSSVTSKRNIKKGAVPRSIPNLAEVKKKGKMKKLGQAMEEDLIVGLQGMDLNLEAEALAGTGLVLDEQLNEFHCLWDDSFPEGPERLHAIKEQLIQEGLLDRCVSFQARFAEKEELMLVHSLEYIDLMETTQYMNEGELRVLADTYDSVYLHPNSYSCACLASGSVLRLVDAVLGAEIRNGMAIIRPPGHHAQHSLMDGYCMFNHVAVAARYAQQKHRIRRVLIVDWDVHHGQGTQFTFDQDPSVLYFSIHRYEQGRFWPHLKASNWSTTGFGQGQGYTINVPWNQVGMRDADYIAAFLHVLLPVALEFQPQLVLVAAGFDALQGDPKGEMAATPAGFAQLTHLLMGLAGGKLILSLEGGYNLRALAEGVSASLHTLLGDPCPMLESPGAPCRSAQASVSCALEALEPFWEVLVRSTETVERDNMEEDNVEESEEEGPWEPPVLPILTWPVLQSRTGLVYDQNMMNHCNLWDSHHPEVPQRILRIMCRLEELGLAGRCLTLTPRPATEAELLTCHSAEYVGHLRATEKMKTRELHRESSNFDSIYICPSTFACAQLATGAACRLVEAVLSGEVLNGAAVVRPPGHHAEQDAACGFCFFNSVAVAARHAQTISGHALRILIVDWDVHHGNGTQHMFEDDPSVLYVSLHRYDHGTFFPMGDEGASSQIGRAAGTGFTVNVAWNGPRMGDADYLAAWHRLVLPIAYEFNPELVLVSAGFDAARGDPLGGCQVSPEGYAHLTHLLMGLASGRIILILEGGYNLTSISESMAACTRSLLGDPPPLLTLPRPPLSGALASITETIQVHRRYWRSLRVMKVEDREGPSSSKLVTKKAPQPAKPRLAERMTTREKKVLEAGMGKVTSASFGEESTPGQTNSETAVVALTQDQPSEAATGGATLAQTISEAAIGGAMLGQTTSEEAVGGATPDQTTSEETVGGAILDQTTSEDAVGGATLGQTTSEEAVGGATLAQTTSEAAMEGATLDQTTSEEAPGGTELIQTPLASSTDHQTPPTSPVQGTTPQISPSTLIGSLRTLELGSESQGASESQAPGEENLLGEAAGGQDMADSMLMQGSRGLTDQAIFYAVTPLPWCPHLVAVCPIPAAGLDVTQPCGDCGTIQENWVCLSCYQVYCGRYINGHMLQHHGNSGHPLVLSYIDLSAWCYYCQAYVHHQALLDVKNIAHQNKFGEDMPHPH
# Method: as §2, §3
# [8] = target: T3, HDAC7 (Homo sapiens, UniProt Q8WUI4); assay: as above; type: biochemical; conditions: recombinant enzyme, n ≥ 2, SD <10% of mean
# T3 construct: purchased BPS Bioscience
# T3 sequence (Q8WUI4 whole entry): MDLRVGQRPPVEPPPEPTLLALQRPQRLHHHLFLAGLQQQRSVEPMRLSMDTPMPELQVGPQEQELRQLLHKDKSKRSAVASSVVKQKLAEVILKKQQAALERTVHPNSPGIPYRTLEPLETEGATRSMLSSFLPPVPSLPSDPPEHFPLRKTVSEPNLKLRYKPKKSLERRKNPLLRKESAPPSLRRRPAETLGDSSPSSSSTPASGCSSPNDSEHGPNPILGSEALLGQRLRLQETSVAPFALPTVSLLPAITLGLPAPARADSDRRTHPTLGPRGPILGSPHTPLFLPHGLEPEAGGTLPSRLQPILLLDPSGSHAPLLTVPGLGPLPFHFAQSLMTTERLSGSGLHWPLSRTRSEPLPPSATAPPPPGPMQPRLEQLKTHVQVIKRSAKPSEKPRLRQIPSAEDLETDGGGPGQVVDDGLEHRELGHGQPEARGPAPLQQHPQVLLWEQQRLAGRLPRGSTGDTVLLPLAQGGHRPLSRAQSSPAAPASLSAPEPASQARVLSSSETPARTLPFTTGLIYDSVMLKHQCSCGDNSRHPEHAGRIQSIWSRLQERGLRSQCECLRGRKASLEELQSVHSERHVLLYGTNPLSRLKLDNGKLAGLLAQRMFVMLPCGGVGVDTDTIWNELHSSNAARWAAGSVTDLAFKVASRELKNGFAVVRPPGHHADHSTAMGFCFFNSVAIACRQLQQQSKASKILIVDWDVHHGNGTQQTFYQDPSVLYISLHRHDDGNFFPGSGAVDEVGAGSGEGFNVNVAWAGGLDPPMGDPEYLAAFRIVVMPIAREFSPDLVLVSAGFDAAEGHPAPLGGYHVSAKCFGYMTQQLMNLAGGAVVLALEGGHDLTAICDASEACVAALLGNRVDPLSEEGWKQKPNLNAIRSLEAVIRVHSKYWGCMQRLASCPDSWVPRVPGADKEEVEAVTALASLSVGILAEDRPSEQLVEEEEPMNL
# Method: as §2, §3
# [9] = target: T4, HDAC1 (Homo sapiens, UniProt Q13547); assay: as above; type: biochemical; conditions: recombinant enzyme, n ≥ 2, SD <10% of mean
# T4 construct: purchased BPS Bioscience
# T4 sequence (Q13547 whole entry): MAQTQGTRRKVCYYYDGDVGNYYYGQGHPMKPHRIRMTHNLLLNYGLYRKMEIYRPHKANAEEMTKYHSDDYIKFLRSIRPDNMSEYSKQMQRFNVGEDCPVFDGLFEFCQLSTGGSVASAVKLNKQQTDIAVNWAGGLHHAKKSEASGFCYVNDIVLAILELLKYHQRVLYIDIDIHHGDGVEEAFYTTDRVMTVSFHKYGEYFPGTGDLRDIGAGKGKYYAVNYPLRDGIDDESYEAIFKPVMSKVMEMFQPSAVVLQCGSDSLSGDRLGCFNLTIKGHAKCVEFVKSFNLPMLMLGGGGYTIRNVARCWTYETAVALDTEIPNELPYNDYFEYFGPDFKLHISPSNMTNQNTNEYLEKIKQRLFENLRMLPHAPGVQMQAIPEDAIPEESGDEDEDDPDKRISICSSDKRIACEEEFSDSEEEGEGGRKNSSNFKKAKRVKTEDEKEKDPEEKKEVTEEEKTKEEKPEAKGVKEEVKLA
# Method: as §2, §3
# [10] = test system: HepG2 cells; assay: Cell apoptosis assay (annexin V-FITC/PI, flow cytometry); type: cell-based, human; conditions: 24 h, normal group 5.83%
# Method: Then cells were washed with PBS, collected, and resuspended with binding buffer from a commercially available annexin V–FITC kit (Thermo Fisher Co., USA) and mixed with 5 μL of annexin V–FITC gently. Following 10 min of incubation, 1 μL of propidium iodide was added to the samples and incubated for another 20 min while avoiding light. Flow cytometry was used to determine cell apoptosis status (CytoFLEX, Beckman Coulter).
# [11] = test system: HepG2 cells; assay: Antiproliferative MTT assay; type: cell-based, human
# Method: (§4) The stock solutions of compounds to be tested were prepared in culture medium. […] To determine cell viability, 20 μL MTT working solution (5 mg/mL) was then added to each well and incubated for another 4 h. After this incubation, the medium was carefully aspirated, and 200 μL dimethyl sulfoxide (DMSO) was added to each well and vibrated for 10 min to make sure formed formazans were completely dissolved. The optical densities (ODs) at 490 and 630 nm were counted by Universal Microplate Spectrophotometer. […] Origin 7.5 software was used to calculate the IC50 values from at least three independent experiments.
# [12] = target: T5, HDAC9 (Homo sapiens, UniProt Q9UKV0); assay: biochemical
# T5 construct: purchased BPS Bioscience
# T5 sequence (Q9UKV0 whole entry): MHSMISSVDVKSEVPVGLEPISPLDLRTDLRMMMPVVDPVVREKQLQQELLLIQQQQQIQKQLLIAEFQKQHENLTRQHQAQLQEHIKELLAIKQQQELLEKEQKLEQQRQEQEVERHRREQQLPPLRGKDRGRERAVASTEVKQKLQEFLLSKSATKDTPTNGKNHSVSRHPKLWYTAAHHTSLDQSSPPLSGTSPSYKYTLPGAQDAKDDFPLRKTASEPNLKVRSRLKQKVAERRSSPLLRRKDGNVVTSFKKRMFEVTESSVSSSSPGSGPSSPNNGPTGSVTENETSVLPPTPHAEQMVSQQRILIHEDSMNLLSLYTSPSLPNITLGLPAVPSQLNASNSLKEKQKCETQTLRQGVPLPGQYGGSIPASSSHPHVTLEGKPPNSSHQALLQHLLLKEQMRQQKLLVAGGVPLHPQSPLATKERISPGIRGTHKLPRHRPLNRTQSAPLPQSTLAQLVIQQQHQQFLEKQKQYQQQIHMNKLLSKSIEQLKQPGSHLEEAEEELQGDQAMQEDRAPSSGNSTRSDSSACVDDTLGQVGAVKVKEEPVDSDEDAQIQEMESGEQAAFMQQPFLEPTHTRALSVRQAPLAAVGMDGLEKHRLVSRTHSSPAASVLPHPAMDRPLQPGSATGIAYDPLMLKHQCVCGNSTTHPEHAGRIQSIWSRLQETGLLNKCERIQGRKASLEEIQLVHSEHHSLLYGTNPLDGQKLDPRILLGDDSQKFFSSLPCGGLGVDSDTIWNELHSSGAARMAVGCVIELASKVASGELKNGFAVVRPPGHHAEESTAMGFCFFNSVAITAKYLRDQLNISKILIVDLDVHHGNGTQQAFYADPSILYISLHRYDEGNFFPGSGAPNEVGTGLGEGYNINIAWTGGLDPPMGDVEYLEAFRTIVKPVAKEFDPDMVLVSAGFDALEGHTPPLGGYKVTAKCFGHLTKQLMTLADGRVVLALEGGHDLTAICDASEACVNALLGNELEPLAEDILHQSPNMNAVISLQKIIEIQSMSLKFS
# Method: as §2, §3
# [13] = target: T6, HDAC8 (Homo sapiens, UniProt Q9BY41); assay: biochemical
# T6 construct: purchased BPS Bioscience
# T6 sequence (Q9BY41 whole entry): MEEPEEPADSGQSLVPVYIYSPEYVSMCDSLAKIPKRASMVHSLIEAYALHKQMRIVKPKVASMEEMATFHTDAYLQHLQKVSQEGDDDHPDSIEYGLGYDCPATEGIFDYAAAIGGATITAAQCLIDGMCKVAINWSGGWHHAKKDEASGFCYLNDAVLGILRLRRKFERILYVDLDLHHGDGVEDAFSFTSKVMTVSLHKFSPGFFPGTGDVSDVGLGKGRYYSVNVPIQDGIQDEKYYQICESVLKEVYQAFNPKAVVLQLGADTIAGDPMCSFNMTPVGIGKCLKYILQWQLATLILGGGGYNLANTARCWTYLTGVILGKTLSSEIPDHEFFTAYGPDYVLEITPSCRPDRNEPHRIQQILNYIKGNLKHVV
# Method: as §2, §3
# [14] = target: T7, HDAC2 (Homo sapiens, UniProt Q92769); assay: biochemical; conditions: recombinant enzyme, n ≥ 2, SD <10% of mean
# T7 construct: purchased BPS Bioscience
# T7 sequence (Q92769 whole entry): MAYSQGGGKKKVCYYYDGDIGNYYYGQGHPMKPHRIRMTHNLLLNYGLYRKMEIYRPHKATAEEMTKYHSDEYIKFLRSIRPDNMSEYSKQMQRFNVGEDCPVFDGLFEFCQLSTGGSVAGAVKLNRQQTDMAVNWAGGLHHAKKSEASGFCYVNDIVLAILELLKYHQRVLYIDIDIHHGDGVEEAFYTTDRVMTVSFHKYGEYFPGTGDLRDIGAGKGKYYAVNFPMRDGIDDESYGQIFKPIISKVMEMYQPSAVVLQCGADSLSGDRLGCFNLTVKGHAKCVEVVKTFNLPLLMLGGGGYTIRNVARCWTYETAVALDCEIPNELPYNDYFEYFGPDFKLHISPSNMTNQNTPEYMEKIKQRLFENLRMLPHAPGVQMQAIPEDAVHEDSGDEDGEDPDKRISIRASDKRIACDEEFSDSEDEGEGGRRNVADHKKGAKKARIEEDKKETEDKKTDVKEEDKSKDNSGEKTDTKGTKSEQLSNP
# Method: as §2, §3
# [15] = target: T8, HDAC4 (Homo sapiens, UniProt P56524); assay: biochemical
# T8 construct: purchased BPS Bioscience
# Method: as §2, §3
# [16] = test system: A2780 cells; assay: Antiproliferative MTT assay; type: cell-based; conditions: Homo sapiens, A2780, 48 h, read-out: Antiproliferative IC50
# Method: as §4
# [17] = test system: U937 cells; assay: Antiproliferative MTT assay; type: cell-based; conditions: Homo sapiens, U-937, 48 h, read-out: Antiproliferative IC50
# Method: as §4
# [18] = test system: SK-NEP-1 cells; assay: Antiproliferative MTT assay; type: cell-based; conditions: Homo sapiens, SK-NEP-1, 48 h, read-out: Antiproliferative IC50
# Method: as §4
# [19] = test system: K562 cells; assay: Antiproliferative MTT assay; type: cell-based; conditions: Homo sapiens, K562, 48 h, read-out: Antiproliferative IC50
# Method: as §4
# [20] = test system: SW579 cells; assay: Antiproliferative MTT assay; type: cell-based; conditions: Homo sapiens, SW579, 48 h, read-out: Antiproliferative IC50
# Method: as §4
# [21] = test system: FTC-133 cells; assay: Antiproliferative MTT assay; type: cell-based; conditions: Homo sapiens, FTC-133, 48 h, read-out: Antiproliferative IC50
# Method: as §4
# [22] = test system: U266 cells; assay: Antiproliferative MTT assay; type: cell-based; conditions: Homo sapiens, U-266, 48 h, read-out: Antiproliferative IC50
# Method: as §4
# [23] = test system: Hela cells; assay: Antiproliferative MTT assay; type: cell-based; conditions: Homo sapiens, 48 h, read-out: Antiproliferative IC50
# Method: as §4
# [24] = test system: H322 cells; assay: Antiproliferative MTT assay; type: cell-based; conditions: Homo sapiens, NCI-H322, 48 h, read-out: Antiproliferative IC50
# Method: as §4
# [25] = test system: OS-RC-2 cells; assay: Antiproliferative MTT assay; type: cell-based; conditions: Homo sapiens, OS-RC-2, 48 h, read-out: Antiproliferative IC50
# Method: as §4
# [26] = test system: MDA-MB-231 cells; assay: Antiproliferative MTT assay; type: cell-based; conditions: Homo sapiens, MDA-MB-231, 48 h, read-out: Antiproliferative IC50
# Method: as §4
# [27] = test system: HepG2 cells xenograft; set-up: method as in PMID 31543818; conditions: nude mice xenograft model; cited from earlier work
# [28] = test system: HepG2 cells; conditions: 6 h
# Method: as §5
# [29] = test system: HepG2 cells; assay: Drug combination analysis (MTT assay); type: cell-based; conditions: Homo sapiens, 48 h, read-out: Percentage inhibition rate (PIR)
# Method: The efficacy of drug combination of FNA with taxol and camptothecin was evaluated via cell viability assay (MTT assay). The stock solutions of tested compounds were diluted to the desired concentrations with culture medium. The cells were cultured in 96-well plates at a density 5 × 10^3 cells per well and incubated until 90–95% confluence, and then 100 μL of medium containing desired concentrations of test compounds was added to the wells. Following 48-h incubation, 10 μL of MTT working solution was added to each well and incubated for another 4 h. After removal of the medium, 200 μL DMSO was added to each well to dissolve the formed formazan. The plates were vortexed for 10 min to ensure complete dissolution. Then the OD was acquired with a microplate reader at 490 and 630 nm.
smiles,measurement,setting,value
"Nc1cc(F)ccc1NC(=O)c1ccc(N(CCCl)CCCl)cc1 [FNA, N-(2-amino-4-fluorophenyl)-4-[bis-(2-chloroethyl)-amino]-benzamide]",IC50,[1],4.73 ± 0.05 µM
same,IC50,[2],33.74 ± 0.04 µM
same,IC50,[3],> 100 µM
same,HDAC3 selectivity vs. HDAC1,[4]; ratio of IC50 values,8.83 fold
same,HDAC3 selectivity vs. HDAC2,[4]; ratio of IC50 values,9.94 fold
same,IC50,"[4]; recombinant enzyme, n ≥ 2, SD <10% of mean",0.0955 µM
same,Percentage of cells in G2/M phase (third peak),[5]; 0.125 μM,18.84%
same,Percentage of cells in G2/M phase (third peak),[5]; 0.5 μM,59.36%
same,Tumor growth inhibition (TGI) rate,[6],48.89%
same,IC50,[7],> 5 µM
same,IC50,[8],> 5 µM
same,IC50,[9],0.843 µM
same,Apoptosis rate of HepG2 cells,[10]; 1 μM,14.08%
same,Apoptosis rate of HepG2 cells,[10]; 3 μM,19.11%
same,Apoptosis rate of HepG2 cells,[10]; 9 μM,28.83%
same,Potency relative to SAHA in inhibition of the growth of HepG2 cells,"[11]; HepG2, ratio of IC50 values",13.3 fold
same,IC50,"[11]; Homo sapiens, HepG2, 48 h, read-out: Antiproliferative IC50",1.3 ± 0.25 µM
same,IC50,[12],> 5 µM
same,IC50,[13],> 5 µM
same,IC50,[14],0.949 µM
same,IC50,[15],> 5 µM
same,IC50,[16],4.3 ± 0.12 µM
same,IC50,[17],0.55 ± 0.03 µM
same,IC50,[18],8.32 ± 0.18 µM
same,IC50,[19],1.31 ± 0.05 µM
same,IC50,[20],52.4 ± 0.13 µM
same,IC50,[21],9.09 ± 0.13 µM
same,IC50,[22],0.63 ± 0.32 µM
same,IC50,[23],1.41 ± 0.04 µM
same,IC50,[24],6.36 ± 0.07 µM
same,IC50,[25],> 100 µM
same,IC50,[26],35.29 ± 0.03 µM
"Nc1ccccc1NC(=O)c1ccc(N(CCCl)CCCl)cc1 [NA, N-(2-aminophenyl)-4-(bis(2-chloroethyl)amino)benzamide]",In vivo potency compared with SAHA,[27],lower potency than SAHA
"O=C(CCCCCCC(=O)Nc1ccccc1)NO [SAHA, Vorinostat]",IC50,[1],7.63 ± 0.03 µM
same,IC50,[3],2.91 ± 0.04 µM
same,Effect in the regulation of HepG2 cell cycle,"[5]; 0.125, 0.25 and 0.5 μM",did not exhibit any effects
same,Apoptosis rate of HepG2 cells,[10]; 1 μM,10.03%
same,Apoptosis rate of HepG2 cells,[10]; 9 μM,12.43%
same,"Percentage of cells, first peak of cell cycle histogram (phase not given)",[28]; 0.125 μM,57.65%
same,"Percentage of cells, second peak of cell cycle histogram (phase not given)",[28]; 0.125 μM,25.02%
same,"Percentage of cells, first peak of cell cycle histogram (phase not given)",[28]; 0.25 μM,56.26%
same,"Percentage of cells, second peak of cell cycle histogram (phase not given)",[28]; 0.25 μM,26.33%
same,"Percentage of cells, first peak of cell cycle histogram (phase not given)",[28]; 0.5 μM,64.73%
same,"Percentage of cells, second peak of cell cycle histogram (phase not given)",[28]; 0.5 μM,23.27%
CC[C@@]1(O)C(=O)OCc2c1cc1n(c2=O)Cc2cc3ccccc3nc2-1 [camptothecin],inhibition at 0.25 µM,"[29]; HepG2, camptothecin 0.25 μM alone",61.7%
same,inhibition at 0.5 µM,"[29]; HepG2, camptothecin 0.5 μM alone",60.9%
CC(=O)O[C@H]1C(=O)[C@@]2(C)[C@H]([C@H](OC(=O)c3ccccc3)[C@]3(O)C[C@H](OC(=O)[C@H](O)[C@@H](NC(=O)c4ccccc4)c4ccccc4)C(C)=C1C3(C)C)[C@]1(OC(C)=O)CO[C@@H]1C[C@@H]2O [taxol],inhibition at 0.1 µM,"[29]; HepG2, taxol 0.1 μM alone",57.1%
same,inhibition at 0.2 µM,"[29]; HepG2, taxol 0.2 μM alone",62.4%
